{
  "source": "patent US7169762B2",
  "about": "“Substance having physiological property, method for producing the same and uses thereof” (Amino Up Chemical Co., Ltd., priority 2001, dated 2007)",
  "key": {"[1]": {"tested_on": "TNF-α and IFN-γ", "test": "cytokine concentrations in supernatant of LPS-stimulated macrophage (PEC) culture after oral administration to mice", "assay_type": "in vivo, mouse", "conditions": "1 g/kg oral for 1 week, C57/BL6 mice; PEC macrophages + LPS 100 ng/ml, 4 hours", "experimental": "(§1) The physiological activity assays were performed by forcibly administering 1 g/kg of a sample to 6-week age male C57/BL6 mice for 1 week by oral route. Spleen cells and peritoneal exudate cells (PEC) were collected after sacrificing the animals. They were cultivated and assayed TNF-α, IFN-γ, and IL-2.\nPEC (peritoneal exudate cells) collected from mouse abdominal cavity with physiological saline were centrifuged, (1,000 rpm, 10 minutes) to collect cells, which were used as macrophages. To the macrophages LPS (lipopoly saccharide) was added at a final concentration of 100 ng/ml and the cells were cultivated. After 4 hours, TNF-α, IFN-γ, and IL-2 in the culture supernatant were assayed.\n(§2) For both a) and b) above, a kit for assaying cytokine (Wako Pure Chemical Industries, Ltd.) was used."}, "[2]": {"tested_on": "TNF-α, IFN-γ and IL-2", "test": "cytokine concentrations in supernatant of ConA-stimulated spleen cell culture after oral administration to mice", "assay_type": "in vivo, mouse", "conditions": "1 g/kg oral for 1 week, C57/BL6 mice, IL-2 in culture supernatant (FIGS. 1 to 3)", "experimental": "as §1\nThe collected mouse spleen was homogenized in DMEM medium and the homogenate was centrifuged at 4° C. (1,000 rpm, 5 minutes) To this was added ASK lysis buffer and the mixture was incubated (37° C., 3 minutes) in order to remove erythrocytes, followed by centrifugation (1,000 rpm, 5 minutes). To the spleen cells thus collected was added ConA at a final concentration of 10 μg/ml and cultivated in a microplate. After 15 hours, the culture supernatant was collected for assaying TNF-α, IFN-γ, and IL-2.\nas §2"}},
  "data": [
    {"smiles": "CC(=O)c1occc1OC1OC(CO)C(O)C(O)C1O", "note": "[substance A, 2-acetyl-3-hydroxyfuran 3-O-α-D-glucopyranoside]", "values": [
      {"measurement": "cytokine induction ability, macrophage", "setting": "[1]", "value": "high cytokine induction ability"},
      {"measurement": "cytokine induction ability", "setting": "[2]", "value": "considerable cytokine induction ability"}
    ]}
  ]
}
